# From patent US20090105217A1, “2-PHENYL-5-AMINO-1,3,4-OXADIAZOLES AND THEIR USE AS NICOTINIC ACETYLCHOLINE RECEPTOR LIGANDS” (priority 2007, published 2009)
# Molecular target: T1, human α7 nAChR (Homo sapiens, UniProt P36544)
# T1 construct: host or cells: GH4C1 cells (pituitary tumor, immortalized cell line)
# Assay: α7 nAChR FLIPR (Fluorometric Imaging Plate Reader) Ca2+ assay, agonist EC50
# Type: cell-based
# Details: GH4C1 cells stably transfected with human α7 nAChR; Fluo-4 Ca2+ fluorescence; Examples 194 to 205 tested as the HCl salt; read-out: pEC50 value (negative logarithm of the agonist EC50) (converted)
# Method: α7 nAChR FLIPR® (Fluorometric Imaging Plate Reader) Assay
# Function of the heterologous expressed α7 nAChR was assessed by a FLIPR-Ca^2+ assay. Since nAChRs are non-selective cation channels with high permeability to Ca^2+, these studies were carried out by measuring changes of intracellular Ca^2+ concentration using the Ca^2+-chelating fluorescent dye Fluo-4 and FLIPR® (Fluorometric Imaging Plate Reader) technology.
# GH4C1cells (pituitary tumor, immortalized cell line) stably transfected with human α7 nAChR (Biocat ID 96986), were thawed, suspended in growth medium (Ham's Nutrient Mixture F10—Ham's F10, Invitrogen 31550-023, 15% Horse Serum heat inactivated—Invitrogen 26050-047, 2.5% Foetal Bovine Serum—FBS, Gibco 10500-064, 200 μg/ml Hygromycin B—Invitrogen, 10687-010, 10 mg/L Phenol Red—Sigma, P 0290, 1 mM Glutamine—Invitrogen, 25030-024) and plated in 500 cm^2 Triple Flask.
# Cells were then incubated at 30° C., 5% CO2 for 72 hours.
# On the day of the experiment, cells were washed twice with Assay Buffer (AB) (145 mM NaCl, 5 mM KCl, 1 mM MgCl2, 2 mM CaCl2, 20 mM HEPES, 5.5 mM Glucose pH=7.3) containing 2.5 mM Probenecid. Changes in the intracellular Ca^2+ content of stably transfected cells were measured using the Ca^2+ chelating dye Fluo-4 (Tef Labs 0152) in conjunction with a FLIPR® (Molecular Devices). The cell permeant dye Fluo-4 was prepared to a concentration of 1 mM in 100% DMSO and 10% Pluronic acid. The dye was then diluted with AB to a final concentration of 2 μM and placed on the cells. After 45-60 minutes dye loading incubation at 37° C., the unincorporated dye was removed from the cells by washing (80 μL, 3 times) with AB, and a final volume of 30 μL/well of AB was left in each well.
# Plates containing test compounds (dissolved in 100% DMSO at 2 mM and serially diluted with DMSO) were copied into “daughter” plates (1 μL/well dispensation). Just prior to starting the assay, the “daughter” plate was diluted with 50 μL/well of AB.
# The plates were then placed in the FLIPR®, and cell fluorescence was determined before drug addition (30 seconds) and monitored (excitation 488 nm, emission 510-580 nm) immediately following exposure to compounds. Maximum fluorescence values were recorded and fitted for agonist EC50 calculations.
# The results are expressed as pEC50 values. A pEC50 is the negative logarithm of the agonist EC50 calculation as determined in the α7 nAChR FLIPR® assay. […] Variations in pEC50 may arise between tests.
# T1 sequence (P36544 23-502): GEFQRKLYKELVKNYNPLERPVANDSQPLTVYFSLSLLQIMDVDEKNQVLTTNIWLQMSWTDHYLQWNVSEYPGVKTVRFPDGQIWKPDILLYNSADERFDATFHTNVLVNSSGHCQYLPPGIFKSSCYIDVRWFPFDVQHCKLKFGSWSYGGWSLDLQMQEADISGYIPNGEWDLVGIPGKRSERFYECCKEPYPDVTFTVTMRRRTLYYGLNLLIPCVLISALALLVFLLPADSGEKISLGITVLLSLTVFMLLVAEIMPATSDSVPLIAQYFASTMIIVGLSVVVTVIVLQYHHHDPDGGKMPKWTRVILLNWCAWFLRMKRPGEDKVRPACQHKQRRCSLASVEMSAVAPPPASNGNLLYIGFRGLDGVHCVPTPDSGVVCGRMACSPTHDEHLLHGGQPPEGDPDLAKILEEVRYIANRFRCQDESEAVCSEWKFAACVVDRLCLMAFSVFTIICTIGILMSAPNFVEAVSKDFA
row,SMILES,EC50 [nM]
1,"CCN(CC)CCCNc1nnc(-c2ccc(NC(=O)C3CCCCC3)cc2C(F)(F)F)o1 [Example 67, N-[4-(5-{[3-(diethylamino)propyl]amino}-1,3,4-oxadiazol-2-yl)-3-(trifluoromethyl)phenyl]cyclohexanecarboxamide]",≤ 1000
2,"COc1cc(NC(=O)c2ccccc2)ccc1-c1nnc(NCCCN2CCCC2)o1 [Example 70, N-[3-(methyloxy)-4-(5-{[3-(1-pyrrolidinyl)propyl]amino}-1,3,4-oxadiazol-2-yl)phenyl]benzamide]",≤ 1000
3,"COc1cc(NC(=O)c2ccccc2)ccc1-c1nnc(NCCCN2CCOCC2)o1 [Example 72, N-[3-(methyloxy)-4-(5-{[3-(4-morpholinyl)propyl]amino}-1,3,4-oxadiazol-2-yl)phenyl]benzamide]",≤ 1000
4,"COc1cc(NC(=O)C2CCCCC2)ccc1-c1nnc(NCCCN2CCCC2)o1 [Example 77, N-[3-(methyloxy)-4-(5-{[3-(1-pyrrolidinyl)propyl]amino}-1,3,4-oxadiazol-2-yl)phenyl]cyclohexanecarboxamide]",≤ 1000
5,"COc1cc(NC(=O)C2CCCCC2)ccc1-c1nnc(NCCCCN2CCCC2)o1 [Example 78, N-[3-(methyloxy)-4-(5-{[4-(1-pyrrolidinyl)butyl]amino}-1,3,4-oxadiazol-2-yl)phenyl]cyclohexanecarboxamide]",≤ 100
6,"COc1cc(NC(=O)C2CCCCC2)ccc1-c1nnc(NCCCCN2CCOCC2)o1 [Example 80, N-[3-(methyloxy)-4-(5-{[4-(4-morpholinyl)butyl]amino}-1,3,4-oxadiazol-2-yl)phenyl]cyclohexanecarboxamide]",≤ 1000
7,"CCN(CC)CCCNc1nnc(-c2ccc(NC(=O)C3CCCCC3)cc2OC)o1 [Example 81, N-[4-(5-{[3-(diethylamino)propyl]amino}-1,3,4-oxadiazol-2-yl)-3-(methyloxy)phenyl]cyclohexanecarboxamide]",≤ 1000

# More lines, now with the values ahead:
row,EC50 [nM],SMILES
1,≤ 1000,"CCN(CC)CCCCNc1nnc(-c2ccc(NC(=O)C3CCCCC3)cc2C(F)(F)F)o1 [Example 68, N-[4-(5-{[4-(diethylamino)butyl]amino}-1,3,4-oxadiazol-2-yl)-3-(trifluoromethyl)phenyl]cyclohexanecarboxamide]"
2,≤ 1000,"O=C(Nc1ccc(-c2nnc(NCCCN3CCCC3)o2)cc1)c1ccccc1 [Example 69, N-[4-(5-{[3-(1-pyrrolidinyl)propyl]amino}-1,3,4-oxadiazol-2-yl)phenyl]benzamide]"
3,≤ 100,"COc1cc(NC(=O)c2ccccc2)ccc1-c1nnc(NCCCN2CCCCC2)o1 [Example 71, N-[3-(methyloxy)-4-(5-{[3-(1-piperidinyl)propyl]amino}-1,3,4-oxadiazol-2-yl)phenyl]benzamide]"
4,≤ 100,"COc1cc(NC(=O)c2ccccc2)ccc1-c1nnc(NCCCCN2CCOCC2)o1 [Example 73, N-[3-(methyloxy)-4-(5-{[4-(4-morpholinyl)butyl]amino}-1,3,4-oxadiazol-2-yl)phenyl]benzamide]"
5,≤ 1000,"CCN(CC)CCCNc1nnc(-c2ccc(NC(=O)c3ccccc3)cc2OC)o1 [Example 74, N-[4-(5-{[3-(diethylamino)propyl]amino}-1,3,4-oxadiazol-2-yl)-3-(methyloxy)phenyl]benzamide]"
6,≤ 100,"CCN(CC)CCCCNc1nnc(-c2ccc(NC(=O)c3ccccc3)cc2OC)o1 [Example 75, N-[4-(5-{[4-(diethylamino)butyl]amino}-1,3,4-oxadiazol-2-yl)-3-(methyloxy)phenyl]benzamide]"
7,≤ 100,"COc1cc(NC(=O)c2ccccc2)ccc1-c1nnc(NCCCCN2CCCC2)o1 [Example 76, N-[3-(methyloxy)-4-(5-{[4-(1-pyrrolidinyl)butyl]amino}-1,3,4-oxadiazol-2-yl)phenyl]benzamide]"
8,≤ 1000,"COc1cc(NC(=O)C2CCCCC2)ccc1-c1nnc(NCCCN2CCOCC2)o1 [Example 79, N-[3-(methyloxy)-4-(5-{[3-(4-morpholinyl)propyl]amino}-1,3,4-oxadiazol-2-yl)phenyl]cyclohexanecarboxamide]"
